The structures appear in SMILES notation.

Experiment [1] has as its target T1, Bile salt export pump (Rattus norvegicus, UniProt O70127).
T1 sequence (O70127 whole entry): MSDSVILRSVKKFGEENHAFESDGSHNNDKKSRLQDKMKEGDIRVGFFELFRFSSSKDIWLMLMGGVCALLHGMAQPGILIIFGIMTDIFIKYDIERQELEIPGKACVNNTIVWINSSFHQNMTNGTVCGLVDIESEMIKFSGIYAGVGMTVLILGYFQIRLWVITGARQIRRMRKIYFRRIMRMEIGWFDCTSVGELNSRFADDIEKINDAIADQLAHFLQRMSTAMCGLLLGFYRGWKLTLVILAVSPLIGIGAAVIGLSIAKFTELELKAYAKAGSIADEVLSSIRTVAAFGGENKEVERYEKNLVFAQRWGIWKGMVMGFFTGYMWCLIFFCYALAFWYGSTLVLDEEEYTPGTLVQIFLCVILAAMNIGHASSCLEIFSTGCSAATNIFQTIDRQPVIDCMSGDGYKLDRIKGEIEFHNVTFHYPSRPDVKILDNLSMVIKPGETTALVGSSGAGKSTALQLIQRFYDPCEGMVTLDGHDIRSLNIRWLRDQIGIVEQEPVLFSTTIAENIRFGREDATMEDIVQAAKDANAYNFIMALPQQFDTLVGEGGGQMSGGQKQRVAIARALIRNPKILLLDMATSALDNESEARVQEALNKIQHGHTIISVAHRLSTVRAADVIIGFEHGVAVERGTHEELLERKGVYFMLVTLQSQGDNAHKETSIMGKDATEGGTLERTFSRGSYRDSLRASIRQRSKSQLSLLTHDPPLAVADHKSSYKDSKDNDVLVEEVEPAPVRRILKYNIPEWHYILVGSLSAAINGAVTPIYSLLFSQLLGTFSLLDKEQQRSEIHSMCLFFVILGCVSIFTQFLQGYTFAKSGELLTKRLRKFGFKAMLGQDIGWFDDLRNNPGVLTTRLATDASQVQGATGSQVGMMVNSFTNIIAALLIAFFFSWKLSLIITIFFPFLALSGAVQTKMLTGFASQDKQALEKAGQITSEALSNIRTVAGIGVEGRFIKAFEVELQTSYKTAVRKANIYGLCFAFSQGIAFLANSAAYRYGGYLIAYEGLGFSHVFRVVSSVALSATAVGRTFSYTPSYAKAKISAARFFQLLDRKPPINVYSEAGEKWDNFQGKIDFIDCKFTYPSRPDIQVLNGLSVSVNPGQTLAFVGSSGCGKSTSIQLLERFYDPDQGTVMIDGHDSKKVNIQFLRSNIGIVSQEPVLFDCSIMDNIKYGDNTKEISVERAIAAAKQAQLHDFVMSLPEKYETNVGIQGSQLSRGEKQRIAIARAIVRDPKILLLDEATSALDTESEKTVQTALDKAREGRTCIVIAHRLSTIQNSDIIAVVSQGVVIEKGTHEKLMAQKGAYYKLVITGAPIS
The experiment can be described thus: Inhibition of BSEP in Sprague-Dawley rat canalicular membrane vesicles assessed as reduction in ATP-dependent [3H]-taurocholate uptake. In kind it is ADME.

Experiment [2] has as its target Bile salt export pump (Homo sapiens, UniProt O95342). The format is ADME.

Broadly, the Ki is the equilibrium dissociation constant of an inhibitor or competing ligand from its target. For the compound `COc1ccc(CCN(C)CCCC(C#N)(c2ccc(OC)c(OC)c2)C(C)C)cc1OC` (stereo not drawn), the Ki at Bile salt export pump [1] came to 92.5 µM. Broadly, the IC50 is the point on the concentration scale where inhibition reaches its midpoint. With `COc1ccccc1N1CCN(CCCNc2cc(=O)n(C)c(=O)n2C)CC1`, the IC50 on Bile salt export pump [2] was < 11.3 µM. Take `NC(=O)c1cc([N+](=O)[O-])cc([N+](=O)[O-])c1` [NITROMIDE]: the IC50 at Bile salt export pump [2] is 185 µM.

On to `CCCCc1ccc2[nH]c(NC(=O)OC)nc2c1` [PARBENDAZOLE], for which, on Bile salt export pump [2], the IC50 was > 1000 µM. For `NS(=O)(=O)c1cc(Cl)c(Cl)c(S(N)(=O)=O)c1` [DICHLORPHENAMIDE], the IC50 at Bile salt export pump [2] is > 919 µM. Same read-out and setting: the result for `Cc1ccc(/C(=C\CN2CCCC2)c2ccccn2)cc1` [TRIPROLIDINE] reads 291 µM; that for `CCC(NC(C)C)C(O)c1ccc(O)c(O)c1` (stereo not drawn) [ISOETHARINE], > 1000 µM; that for `[H]/N=C(/N)N/C(=N/[H])NCCc1ccccc1` [PHENFORMIN], > 1000 µM. With `CN(C)CCC=C1c2ccccc2C=Cc2ccccc21` [CYCLOBENZAPRINE], at Bile salt export pump [2], the IC50 was 107 µM.

As for `COc1ccc(-c2cc(C(F)F)nn2-c2ccc(S(N)(=O)=O)cc2)cc1F` [DERACOXIB], at Bile salt export pump [2], the IC50 was determined as 20.2 µM. With `CC(=O)OCC[N+](C)(C)C` [ACETYLCHOLINE], at Bile salt export pump [2], the IC50 is > 1000 µM. On the same count and under the same terms, the result for `N[C@H]1C[C@@H]1c1ccccc1` [(+)-TRANYLCYPROMINE] reads 103 µM. As for `CC(=O)Nc1c(I)c(C(=O)N[C@H]2C(O)O[C@H](CO)[C@@H](O)[C@@H]2O)c(I)c(N(C)C(C)=O)c1I` (stereo partly drawn) [METRIZAMIDE], the IC50 on Bile salt export pump [2] is > 1000 µM. Still for that read-out and setting: next, `O=C(O)c1ccc(OCCn2ccnc2)cc1` [DAZOXIBEN]: > 1000 µM. Still for that read-out and setting: next, `COc1ccc(Nc2ccn(-c3ccccc3)n2)cc1`: 23 µM; `c1ccc2c(c1)sc1ccccc12` [DIBENZOTHIOPHENE]: 388 µM. Regarding `C[C@@H](O)[C@H]1C(=O)N2C(C(=O)O)=C(SCCN=CN)C[C@H]12` [IMIPENEM ANHYDROUS], the IC50 at Bile salt export pump [2] was > 1000 µM. Regarding `Cc1scc2c1N(C(=O)CN1CCN(C)CC1)c1ccccc1NC2=O` [TELENZEPINE], the half-inhibitory concentration (IC50) on Bile salt export pump [2] is 315 µM.

The values above are taken from ChEMBL document CHEMBL4017441, “Mitigating the inhibition of human bile salt export pump by drugs: opportunities provided by physicochemical property modulation, in silico modeling, and structural modification” (Drug Metab Dispos, 2012).
